# From PMC9975698, “Hyperoside alleviates toxicity of β-amyloid via endoplasmic reticulum-mitochondrial calcium signal transduction cascade in APP/PS1 double transgenic Alzheimer's disease mice” (Redox Biology, 2023)
# Tests used:
# Format in all cases: cell-based
# HT22 cells [1] = experiment: Annexin V-PI detection by flow cytometry; conditions: BAPTA/AM co-treatment, annexin V-PI staining
# Experimental: Apoptosis was detected with Annexin V staining kit (BD Biosciences, CA, USA). […] The number of apoptotic cells was quantified by flow cytometry (BD FACSAria III, CA, USA). Data acquisition and analysis were performed with CellQuest (BD Biosciences) from three independent experiments.
# HT22 cells [2] = experiment: Fluo-3 detection of calcium ion concentration; conditions: after addition of Aβ
# Experimental: 2 × 10^5 HT22 cells were incubated in 35 mm confocal dishes for 24 h at 37 °C in a CO^2 incubator. A 5 mM Fluo-3 AM stock solution was diluted with Hanks-Balanced Salt Solution (HBSS) to a 5 μM working solution and then added to the cells for 30 min at 37 °C. HT22 cells were washed three times with HEPES-buffered saline and then incubated in an imaging chamber at 37 °C for an additional 10 min. After the addition of 30 μM of Aβ aggregates in HBSS buffer, changes in cellular Ca^2+ levels were monitored by epifluorescence microscopy (Applied Precision DeltaVision Elite, Applied Precision, Inc., United States) using the real-time mode for tracking Fluo-3 changes for 5 min. The data inspection program provided by DeltaVision software was used to measure the intensity of Fluo-3 fluorescence.
# HT22 cells [3] = experiment: Cytotoxicity (MTT) assay; conditions: aggregated Aβ 30 μM
# Experimental: Cytotoxicity was assessed using the MTT (5.0 mg/mL) assay. 4 × 10^3 HT22 cells per well were seeded in 96-well plates. After overnight incubation, cells were treated with Aβ aggregates (30 μM) for 48 h with or without the presence of HYP (20–80 μM). Cells were treated with DMSO as a control. Subsequently, MTT (10 μL) was added to each well for 4 h, followed by the addition of 100 μL of lysis buffer (10% SDS in 0.01 mol/L hydrochloric acid) and overnight incubation. The absorbance was measured at 570 nm the next day. The formula was calculated as a percentage of cell viability: Cell viability (%) = A (treatded) / A (control) × 100%. Data were obtained from three independent experiments in triplicate.
# HT22 cells [4] = experiment: Mitochondrial membrane potential by JC-1; conditions: CCCP positive control
# From the text: The mitochondrial membrane potential of HT22 stained with 5,5′,6,6′-tetrachloro-1,1′,3,3′-tetraethylbenzimidazolyl cobalt iodide (JC-1) was observed by laser scanning confocal microscopy.
# HT22 cells [5] = experiment: Cytoplasmic calcium dynamics (FLIPR Calcium 6); conditions: HT22 cells, TG or Aβ 30 μM
# Experimental: Intracellular Ca^2+ dynamics were determined using the FLIPR Calcium 6 Assay Kit (Molecular Devices) according to the manufacturer's instructions. Briefly, HT22 was housed at 4 × 10^4 cells per well in a black-walled and clear-bottom 96 multi-well plate (Costar, MA, USA) and treated with Calcium 6 reagent for 1 h.
compound,measurement,setting,value
CC(=O)OCOC(=O)CN(CC(=O)OCOC(C)=O)c1ccccc1OCCOc1ccccc1N(CC(=O)OCOC(C)=O)CC(=O)OCOC(C)=O [BAPTA/AM],percentage of Aβ-induced cell death,HT22 cells [1],decrease the percentage of Aβ-induced cell death
Aβ: Aβ (1–42) peptide incubated at 37 °C for 5 days to form Aβ aggregates [reference compound],Fluo-3 fluorescence intensity (Ca2+ level),HT22 cells [2],significant increase of fluorescence intensity
same,cell death by aggregated Aβ alone,HT22 cells [3],induced cell death in HT22
"Carbonyl cyanide m-chlorophenyl hydrazine [CCCP, reference compound]",mitochondrial membrane potential (JC-1),HT22 cells [4],loss of membrane potential
"C/C=C(/C)C(=O)O[C@H]1C(C)=C2[C@H]([C@@H]1OC(=O)CCCCCCC)[C@@](C)(OC(C)=O)C[C@H](OC(=O)CCC)[C@@]1(O)[C@H]2OC(=O)[C@@]1(C)O [TG, Thapsigargin, reference compound]","dynamic Ca2+ level, inducer alone",HT22 cells [5],prompt increase in Ca^2+ level
